Source: patent publication US5187074A, “Method of hydroxylation with ATCC 55086” (Merck & Co., Inc., priority 1992, dated 1993)

Molecular target: T1, HIV protease (Human immunodeficiency virus type 1 group M subtype B, UniProt P12497)
T1 construct: HIV protease expressed in Escherichia coli; made in house; host or cells: Escherichia coli
Assay: Assay for Inhibition of Recombinant HIV Protease (APRIN 2.1)
Assay type: biochemical
Details: pH 5.5, 60 min, 37° C.
Protocol: Assay for Inhibition of Recombinant HIV Protease (APRIN 2.1)
Inhibition studies were performed on the reaction of the HIV protease expressed in Escherichia coli with a tritiated peptide substrate [^3 H]-acetyl-Val-Ser-Gln-Asn-(beta-napthyl-Ala)-Pro-Ile-Val-Gln-Gly-Arg-Arg-NH2 (MW 1800). The two arginine residues at the carboxyl terminus give this peptide an overall positive charge at acidic pH and enable it to bind to the H^+ form of DOWEX AG-50W-X8 resin and similar resins.
Aliquots of 25 μl containing 6.0-8.0 nM HIV protease in assay buffer (100 mM sodium acetate, pH 5.5 and 0.1% BSA) are placed in assay tubes. The reaction is initiated by addition of 25 μl aliquots of 4.2 μM tritiated peptide substrate in 100 mM sodium acetate, pH 5.5. After incubation for 60 min at 37° C., the reaction is stopped with 100 μl of 5% H3 PO4, then analysed by application of column chromatography.

| SMILES | inhibition at 0.000625 µg/mL (0.625 ng/ml, control) | inhibition at 0.00125 µg/mL (1.25 ng/ml, control) | inhibition at 0.0025 µg/mL (2.5 ng/ml, control) | inhibition at 0.005 µg/mL (5 ng/ml, control) | inhibition at 0.01 µg/mL (10 ng/ml, control) | inhibition at 0.0116 µg/mL (11.6 ng/ml, major metabolite from culture S-29-145, read-out: APRIN 2.1 Act. (% Inhib.)) |
| --- | --- | --- | --- | --- | --- | --- |
| CC(C)(C)OC(=O)N[C@@H](Cc1ccccc1)[C@@H](O)C[C@@H](Cc1ccc(OCCN2CCOCC2)cc1)C(=O)N[C@H]1c2ccccc2C[C@H]1O [L-689,502, N-(cis-2(R)-hydroxy-1(S) -indanyl)-5(S)-(1,1-dimethylethoxycarbonylamino)-4(S)-hydroxy-6-phenyl-2(R)-[(4-(2-(4-morpholinyl)ethoxy)phenyl)methyl]-hexanamide] | -2% | 21% | 54% | 69% | 86% | – |
| CC(C)(CO)OC(=O)N[C@@H](Cc1ccccc1)[C@@H](O)C[C@@H](Cc1ccc(OCCN2CCOCC2)cc1)C(=O)N[C@H]1c2ccccc2C[C@H]1O [L-697,811] | – | – | – | – | – | 92% |
